Experimental data as given in US8722849B2, “Polypeptides” (Novo Nordisk A/S, priority 2011, dated 2014).
Values after ≈ are worked out from the molar mass of the structure shown. Read-outs that look alike come from different tables or passages of the source. Starred links: 1 amine or outer side, 2 acyl side, 3 side chain; linkers in the order of their positions; H or OH if unused. Positions of bridges follow the written chain, without caps; N, C: chain ends. Residues, ends and D or L forms follow the SMILES beside them. *: point of attachment. C20 diacid = O=C(O)CCCCCCCCCCCCCCCCCCC(=O)*; C18 diacid = O=C(O)CCCCCCCCCCCCCCCCC(=O)*; γGlu = O=C(O)[C@H](CCC(=O)[*:2])N[*:1]

Experiments:
[1] = biological target: T1, human calcitonin receptor (Homo sapiens, UniProt P30988); assay: Assay (II)a functional CRE-luciferase assay, human calcitonin receptor; assay type: cell-based
T1 construct: expressed in transfected cells; host or cells: BHK570
T1 sequence (P30988 25-474): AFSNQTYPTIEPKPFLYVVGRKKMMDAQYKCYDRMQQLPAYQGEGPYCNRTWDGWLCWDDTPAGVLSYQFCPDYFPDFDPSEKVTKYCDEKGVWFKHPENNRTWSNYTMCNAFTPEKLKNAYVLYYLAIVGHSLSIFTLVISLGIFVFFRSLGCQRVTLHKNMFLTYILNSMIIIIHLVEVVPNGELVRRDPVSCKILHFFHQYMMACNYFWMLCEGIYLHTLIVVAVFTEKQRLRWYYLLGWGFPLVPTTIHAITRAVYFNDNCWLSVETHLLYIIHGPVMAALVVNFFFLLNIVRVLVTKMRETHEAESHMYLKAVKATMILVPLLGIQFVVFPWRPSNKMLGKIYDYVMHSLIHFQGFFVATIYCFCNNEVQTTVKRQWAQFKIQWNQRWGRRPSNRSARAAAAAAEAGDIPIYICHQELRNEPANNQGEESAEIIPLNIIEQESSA

[2] = Assay (IV) determination of solubility; assay type: physicochemical
Outline: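 Polypeptide in water (~500 nmol/ml) mixed 1:1 with 100 mM glycylglycine (pH 3.0–5.0) or bistrispropane (pH 6.0–8.0) buffers. Held 18 hours at room temperature, then centrifuged. Polypeptide remaining in solution quantified by HPLC.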

[3] = biological target: T2, human amylin receptor (amylin 3(a) receptor: human calcitonin receptor + RAMP-3) (Homo sapiens, UniProt O60896+P30988); assay: Assay (II)a functional CRE-luciferase assay, human amylin receptor; assay type: cell-based
T2 construct: expressed in transfected cells; host or cells: BHK570
T2 sequence (P30988 25-474): T1 sequence (P30988 25-474)
T2 sequence (O60896 24-148 partner): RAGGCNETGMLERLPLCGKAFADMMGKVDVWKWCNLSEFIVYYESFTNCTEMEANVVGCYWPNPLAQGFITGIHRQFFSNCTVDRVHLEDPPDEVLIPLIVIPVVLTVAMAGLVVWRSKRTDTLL

[4] = Assay (III) ThT fibrillation assay for physical stability; assay type: physicochemical; settings: ThT fibrillation assay
Outline: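 Freshly prepared formulations, pH-adjusted, with 1 μM ThT; four or eight replicates incubated at 37 °C under 960 rpm orbital shaking. Fluorescence (ex 444/em 485 nm) read every 20 min; […]. Peptide concentration measured by RP-HPLC before and after the run.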

[5] = bistrispropane buffer, pH 6, pH 6.0, read-out: Solubility pH 6.0
[6] = bistrispropane buffer, pH 6.5, pH 6.5, read-out: Solubility pH 6.5
[7] = bistrispropane buffer, pH 7, pH 7.0, read-out: Solubility pH 7.0
[8] = bistrispropane buffer, pH 7.5, pH 7.5, read-out: Solubility pH 7.5
[9] = bistrispropane buffer, pH 8, pH 8.0, read-out: Solubility pH 8.0
[10] = glycylglycine buffer, pH 3, pH 3.0, read-out: Solubility pH 3.0
[11] = glycylglycine buffer, pH 4, pH 4.0, read-out: Solubility pH 4.0
[12] = glycylglycine buffer, pH 5, pH 5.0, read-out: Solubility pH 5.0
[13] = Table 7, human calcitonin (CTa) receptor
[14] = glycylglycine buffer, pH 4, pH 4.0, 18 hours at room temperature, Table 2, read-out: Solubility pH 4.0
[15] = Table 2, BHK amylin 3(a)-receptor/CRE-luc cells

Row | EC50 ([1]; Table 11, read-out: CTa receptor human EC50) [pM] | solubility at 18 h [2, 5] [µM] | solubility at 18 h [2, 6] [µM] | solubility at 18 h [2, 7] [µM] | solubility at 18 h [2, 8] [µM] | solubility at 18 h [2, 9] [µM] | solubility at 18 h [2, 10] [µM] | solubility at 18 h [2, 11] [µM] | solubility at 18 h [2, 12] [µM] | EC50 ([3]; Table 11) [pM] | ThT pH 4.0 lag time (h) [4] [h] | EC50 [1, 13] [pM] | solubility at 18 h ([2]; bistrispropane buffer, pH 7, pH 7.0, 18 hours at room temperature, Table 3, read-out: Solubility pH 7.0) [µM] | solubility at 18 h [2, 14] [µM] | EC50 [3, 15] [pM] | ThT pH 4.0 lag time [4] [h] | SMILES
1 | 38.5 | > 200 | > 200 | > 200 | > 200 | > 200 | > 200 | > 200 | > 200 | 34 | 1.7 | – | – | – | – | – | CC[C@H](C)[C@H](NC(=O)[C@@H]1CCCN1C(=O)CNC(=O)[C@H](Cc1ccccc1)NC(=O)[C@H](CC(N)=O)NC(=O)[C@H](CC(N)=O)NC(=O)[C@H](CO)NC(=O)[C@H](CO)NC(=O)[C@H](Cc1c[nH]cn1)NC(=O)[C@@H](NC(=O)[C@H](CC(C)C)NC(=O)[C@H](Cc1ccccc1)NC(=O)[C@H](CC(N)=O)NC(=O)[C@H](C)NC(=O)[C@H](CC(C)C)NC(=O)[C@H](CCCNC(=N)N)NC(=O)[C@H](CCC(N)=O)NC(=O)[C@@H](NC(=O)[C@H](C)NC(=O)[C@@H]1CSSC[C@H](NC(=O)[C@H](CCCNC(=N)N)NC(=O)CC[C@H](NC(=O)CCCCCCCCCCCCCCCCCCC(=O)O)C(=O)O)C(=O)N[C@@H](CC(N)=O)C(=O)N[C@@H]([C@@H](C)O)C(=O)N[C@@H](C)C(=O)N[C@@H]([C@@H](C)O)C(=O)N1)[C@@H](C)O)C(C)C)C(=O)N[C@@H](CC(C)C)C(=O)N1CCC[C@H]1C(=O)N1CCC[C@H]1C(=O)N[C@H](C(=O)N[C@@H](CC(N)=O)C(=O)N[C@H](C(=O)NCC(=O)N[C@@H](CO)C(=O)N[C@@H](CC(N)=O)C(=O)N[C@H](C(=O)N1CCC[C@H]1C(N)=O)[C@@H](C)O)C(C)C)[C@@H](C)O [Example 97] ({C20 diacid-γGlu}-RCNTATCATQRLANFLVHSSNNFGPILPPTNVGSNTP-NH2; disulfide 2-7 (inferred); C-terminus assumed)
2 | – | > 200 | > 200 | > 200 | > 200 | > 200 | > 200 | > 200 | 27 (≈ 120 µg/mL) | – | 0 | 527 | > 200 | > 200 | 151 | – | CC[C@H](C)[C@H](NC(=O)[C@@H]1CCCN1C(=O)CNC(=O)[C@H](Cc1ccccc1)NC(=O)[C@H](CC(N)=O)NC(=O)[C@H](CC(N)=O)NC(=O)[C@H](CO)NC(=O)[C@H](CO)NC(=O)[C@H](Cc1c[nH]cn1)NC(=O)[C@H](Cc1c[nH]cn1)NC(=O)[C@H](CC(C)C)NC(=O)[C@H](Cc1ccccc1)NC(=O)[C@H](CCC(=O)O)NC(=O)[C@H](C)NC(=O)[C@H](CC(C)C)NC(=O)[C@H](CCCNC(=N)N)NC(=O)[C@H](CCC(N)=O)NC(=O)[C@@H](NC(=O)[C@H](C)NC(=O)[C@@H]1CSSC[C@H](NC(=O)CC[C@H](NC(=O)CC[C@H](NC(=O)CCCCCCCCCCCCCCCCC(=O)O)C(=O)O)C(=O)O)C(=O)N[C@@H](CC(N)=O)C(=O)N[C@@H]([C@@H](C)O)C(=O)N[C@@H](C)C(=O)N[C@@H]([C@@H](C)O)C(=O)N1)[C@@H](C)O)C(=O)N[C@@H](CC(C)C)C(=O)N1CCC[C@H]1C(=O)N1CCC[C@H]1C(=O)N[C@H](C(=O)N[C@@H](CC(N)=O)C(=O)N[C@H](C(=O)NCC(=O)N[C@@H](CO)C(=O)N[C@@H](CC(N)=O)C(=O)N[C@H](C(=O)N[C@@H](Cc1ccc(O)cc1)C(N)=O)[C@@H](C)O)C(C)C)[C@@H](C)O [Example 49, N-alpha-{(S)-4-Carboxy-4-[(S)-4-Carboxy-4-(17-carboxyheptadecanoylamino)butyrylamino]butyryl}-[des1,Glu14,His17]-pramlintide] ({C18 diacid-γGlu-γGlu}-CNTATCATQRLAEFLHHSSNNFGPILPPTNVGSNTY-NH2; disulfide 1-6 (inferred))
3 | – | > 200 | 17 (≈ 82 µg/mL) | – | – | 16 (≈ 77.2 µg/mL) | > 200 | > 200 | > 200 | – | 10 | 484 | – | > 200 | 1030 | – | CC[C@H](C)[C@H](NC(=O)[C@@H]1CCCN1C(=O)CNC(=O)[C@H](Cc1ccccc1)NC(=O)[C@H](CC(N)=O)NC(=O)[C@H](CC(N)=O)NC(=O)[C@H](CO)NC(=O)[C@H](CO)NC(=O)[C@H](Cc1c[nH]cn1)NC(=O)[C@H](Cc1c[nH]cn1)NC(=O)[C@H](CC(C)C)NC(=O)[C@H](Cc1ccccc1)NC(=O)[C@H](CCC(=O)O)NC(=O)[C@H](C)NC(=O)[C@H](CC(C)C)NC(=O)[C@H](CCCNC(=N)N)NC(=O)[C@H](CCC(N)=O)NC(=O)[C@@H](NC(=O)[C@H](C)NC(=O)[C@@H]1CSSC[C@H](NC(=O)[C@H](Cc2c[nH]cn2)NC(=O)[C@H](Cc2c[nH]cn2)NC(=O)[C@H](Cc2c[nH]cn2)NC(=O)CC[C@H](NC(=O)CCCCCCCCCCCCCCCCCCC(=O)O)C(=O)O)C(=O)N[C@@H](Cc2c[nH]cn2)C(=O)N[C@@H]([C@@H](C)O)C(=O)N[C@@H](C)C(=O)N[C@@H]([C@@H](C)O)C(=O)N1)[C@@H](C)O)C(=O)N[C@@H](CC(C)C)C(=O)N1CCC[C@H]1C(=O)N[C@@H](Cc1c[nH]cn1)C(=O)N[C@H](C(=O)N[C@@H](CC(N)=O)C(=O)N[C@H](C(=O)NCC(=O)N[C@@H](CO)C(=O)N[C@@H](Cc1c[nH]cn1)C(=O)N[C@H](C(=O)N[C@@H](Cc1ccc(O)cc1)C(N)=O)[C@@H](C)O)C(C)C)[C@@H](C)O [Example 33, N-alpha-[(S)-4-Carboxy-4-(19-carboxynonadecanoylamino)butyryl]-His-His-[His1,His3,Glu14,His17,His29,His35]-pramlintide] ({C20 diacid-γGlu}-HHHCHTATCATQRLAEFLHHSSNNFGPILPHTNVGSHTY-NH2; disulfide 4-9 (inferred); C-terminus assumed)
4 | – | 2 (≈ 8.92 µg/mL) | 1 (≈ 4.46 µg/mL) | 1 (≈ 4.46 µg/mL) | 1 (≈ 4.46 µg/mL) | 3 (≈ 13.4 µg/mL) | > 200 | > 200 | > 200 | – | >45 | 570 | – | > 200 | 394 | >45 | CC[C@H](C)[C@H](NC(=O)[C@@H]1CCCN1C(=O)CNC(=O)[C@H](Cc1ccccc1)NC(=O)[C@H](CC(N)=O)NC(=O)[C@H](CO)NC(=O)[C@H](CO)NC(=O)[C@H](CO)NC(=O)[C@H](Cc1c[nH]cn1)NC(=O)[C@H](CCCNC(=N)N)NC(=O)[C@H](CC(C)C)NC(=O)[C@H](Cc1ccccc1)NC(=O)[C@H](CCC(=O)O)NC(=O)[C@H](C)NC(=O)[C@H](CC(C)C)NC(=O)[C@H](CCCNC(=N)N)NC(=O)[C@H](CCC(N)=O)NC(=O)[C@@H](NC(=O)[C@H](C)NC(=O)[C@@H]1CSSC[C@H](NC(=O)[C@H](Cc2c[nH]cn2)NC(=O)CC[C@H](NC(=O)CCCCCCCCCCCCCCCCCCC(=O)O)C(=O)O)C(=O)N[C@@H](CC(N)=O)C(=O)N[C@@H]([C@@H](C)O)C(=O)N[C@@H](C)C(=O)N[C@@H]([C@@H](C)O)C(=O)N1)[C@@H](C)O)C(=O)N[C@@H](CC(C)C)C(=O)N[C@@H](CO)C(=O)N[C@@H](CO)C(=O)N[C@H](C(=O)N[C@@H](CC(N)=O)C(=O)N[C@H](C(=O)NCC(=O)N[C@@H](CO)C(=O)N[C@@H](Cc1c[nH]cn1)C(=O)N[C@H](C(=O)N[C@@H](Cc1ccc(O)cc1)C(N)=O)[C@@H](C)O)C(C)C)[C@@H](C)O [Example 111, N-alpha-[(S)-4-Carboxy-4-(19-carboxynonadecanoylamino)butyryl]-[His1,Glu14,Arg17,Ser21,Ser28,Ser29,His35]-pramlintide] ({C20 diacid-γGlu}-HCNTATCATQRLAEFLRHSSSNFGPILSSTNVGSHTY-NH2; disulfide 2-7 (inferred))
